Laboratory results as given in patent publication EP0335545B2, “Pharmaceutical formulations for parenteral use” (UNIVERSITY OF FLORIDA, priority 1988, dated 1989).
In brackets after ≈: the same amount, converted by molar mass. Read-outs that look alike come from different tables or passages of the source.

Columns and labels:
[1] = physchem; details: 50% w/w aqueous hpcd
Procedure: An excess of E2-CDS was sonicated with an aqueous solution of the appropriate solubilizing agent for 30 minutes. The suspension was then centrifuged, filtered through 0.45 µm polyvinylidene difluoride (Millex-HV4, Millipore®) membranes and analyzed by HPLC. […] An estimation of the bulk equilibrium constant was obtained by correlating the millimolarity of E2-CDS solubilized and the millimolarity of the cyclodextrin added. This latter value was calculated using the average molecular weight of the isomeric mixture determined by mass spectroscopy. The solubilizing effect of a 50% w/w solution of HPCD was also examined for a series of steroids and dihydropyridines (CDS). These studies were carried out in a similar manner to those previously described.
For the CDS, the wavelength monitored was 360 nm while for estrogen 220 nm was used.
Separation was achieved on an Analytical Sciences, Inc. (ASI) 10 µm particle size, C18 reversed phase 30 cm x 3.9 mm i.d. analytical column. The flow rate was 1 mL/min, the compounds were detected at 360 nm and in all determinations the temperature was ambient. […] For the GABA-CDS1, a mobile phase consisting of 50:1:1:48 of the same components was required. […] Other compounds were assayed spectrophotometrically.

[2] = Aqueous solubility and stability of the E2-CDS-HPCD complex; assay type: physicochemical
Procedure: The E2-CDS-HPCD complex contains about 40 mg of E2-CDS/g and easily gives aqueous solutions containing 5 mg E2-CDS/mL at 20% w/v cyclodextrin. […] The halflife of E2-CDS in such a solution at room temperature in the dark is about 12.5 days (rate: 0.0554 ± 0.0047d^-1).

[3] = Maximum concentrations of selected CDS in varying concentrations of selected cyclodextrins; assay type: physicochemical
Procedure: In further testing, maximum concentrations of selected CDS in varying concentrations of selected cyclodextrins were determined. The concentration of E2-CDS (mg/mL) was as follows: […]

[4] = 37°C
Procedure: In this procedure, 27.5 µL of a 5 x 10^-3 M solution of E2-CDS in acetonitrile was added to 2.75 mL of a solution containing 1 x 10^-4 M Fe(CN)6^-4, 0.06 M K^+, 0.001 M Fe(CN)6^-3. All solutions were made using water which had been boiled for 30 minutes and cooled while a stream of pyrogallol-scrubbed nitrogen passed through it. The E2-CDS was introduced via a syringe to the solution which was maintained at 37°C in a thermostated cell holder and contained in an anaerobic screw-top cuvette. […] For a given concentration of ferricyanide ions (6 x 10^-4 to 8 x 10^-3 M), the rate of disappearance of the E2-CDS was determined. This was done by calculating the decrease in the absorbance band at 360 nm (± 10 nm) subtracted from base line absorbance (500 ± 10 nm). A plot of the 1n [Abs] versus time gave a slope for the pseudo-first-order rate constant. This was done at several different ferricyanide ion concentrations. The obtained first-order rate constants were then plotted as a function of ferricyanide ion concentration generating a slope from which the second order rate constant (k0 s^-1 M^-1) was obtained. In examining the effect of 2-hydroxypropyl-β-cyclodextrin on the rate of E2-CDS oxidation, solutions containing the HPCD as well as those ions present in the first phase of the experiment were prepared. The second order constant was derived for each cyclodextrin concentration and a plot developed.

[5] = Preparation of solid freeze-dried HPCD complexes: degree of incorporation; assay type: physicochemical
Procedure: An excess of E2-CDS was added and the solution then was purged with helium. The resulting suspension was then sonicated for 30 minutes, filtered through a glass filter (ASTM 10-15M, Pyrex No. 36060) and freeze-dried overnight. Best results were obtained by hard-freezing the aqueous solution of the E2-CDS/HPCD complex for at least 10 hours before lyophilization. The degree of complex formation was determined by dissolving a small amount of the dry complex in methanol and then analyzing by high pressure liquid chromatography (HPLC).
An excess of E2-CDS or other CDS was added to a 50% w/w solution of HPCD. The suspension was sonicated for 30 minutes, filtered through 0.45 µm PVDF membranes and freeze-dried. The degree of incorporation was determined either spectrophotometrically or by HPLC. In some cases, the effect of solubilizing agents on the degree of incorporation was examined. This involved adding small amounts of polyoxyethylene 20 cetyl ether (Brij), polyoxyethylene sorbitan monooleate (Tween 80) or ethanol to the aqueous solution prior to lyophilization.
The retention time was 5.2 min. Other compounds were assayed spectrophotometrically.
The solution was degassed and the suspension was sonicated for 30 minutes, after which it was filtered and the filtrate was lyophilized. The dried filtrate contained 65.6 mg testosterone propionate or 29.6 mg T-CDS1 per gram of cyclodextrin complex. Compounds were analyzed for decomposition by thin-layer chromatography and ultraviolet absorption.

[6] = Solid complex of E2-CDS with maltosyl-β-cyclodextrin/dimaltosyl-β-cyclodextrin mixture; assay type: physicochemical
Procedure: In one example of the formulation of a solid complex, an excess of a representative CDS, E2-CDS, was added to a 40% aqueous solution of a mixture of maltosyl-β-cyclodextrin (71%) and various dimaltosyl-β-cyclodextrins (29%) obtained from Ensuiko Sugar Co., Ltd., Lot No. 88190, and mixed for several hours. The suspension was then filtered and freeze-dried, and the amount of complexed drug was determined analytically by UV spectraphotometry. The amount of incorporation was determined to be 81.88 mg/g.

SMILES: CN1C=CCC(C(=O)O[C@H]2CC[C@H]3[C@@H]4CCc5cc(O)ccc5[C@H]4CC[C@]23C)=C1 [Example E2-CDS, 3-Hydroxy-17β-[(1-methyl-1,4-dihydropyridin-3-yl)carbonyl]oxyestra-1,3,5(10)-triene]
- solubility [1]: 22000 µg/mL (≈ 55.9 mM)
- rate (of degradation) ([2]; 5 mg E2-CDS/mL at 20% w/v cyclodextrin, room temperature in the dark): 0.0554 ± 0.0047 day⁻¹
- half-life ([2]; 20% w/v aqueous hpcd, 5 mg E2-CDS/mL at 20% w/v cyclodextrin, room temperature in the dark): ~12.5 days
- increase in aqueous solubility by complexation ([2]; 20% w/v cyclodextrin versus water): 25,000 fold
- solubility ([3]; 20% hebcd): 3090 µg/mL (≈ 7.85 mM)
- solubility ([3]; 20% hpcd): 6730 µg/mL (≈ 17.1 mM)
- solubility ([3]; 40% hebcd): 6070 µg/mL (≈ 15.4 mM)
- solubility ([3]; 40% hpcd): 11900 µg/mL (≈ 30.2 mM)
- solubility ([3]; 40% hpgcd): 4000 µg/mL (≈ 10.2 mM)
- inhibition of second order rate of oxidation ([4]; 0.5% w/v cyclodextrin): 42%
- inhibition of second order rate of oxidation ([4]; 1.0% w/v cyclodextrin): 60%
- inhibition of second order rate of oxidation ([4]; 2% cyclodextrin): 81%
- reduction in the second order rate of oxidation ([4]; 5-20% cyclodextrin): approximately 90%
- stability of the solid complex [5]: stable as a dry powder
- degree of complexation ([5]; 50% (w/w) HPCD, freeze-dried): 20 to 40 mg/g
- upper limit for a stable complex ([5]; HPCD complex): approximately 40 mg/g
- degree of incorporation ([5]; addition of Brij (0.7% w/w)): 189 mg/g
- degree of incorporation after storage ([5]; addition of Brij (0.7% w/w), in 12 days): 42 mg/g
- effect on degree of incorporation ([5]; addition of Tween 80 (0.8% w/w) or ethanol (10% v/v)): only modest effects
- Amount of Drug in Dry Complex ([5]; freeze-dried complex from 50% w/w HPCD (ASDS 5.1)): 37 mg/g
- amount of incorporation ([6]; 40% aqueous maltosyl-β-cyclodextrin (71%) / dimaltosyl-β-cyclodextrins (29%), freeze-dried): 81.88 mg/g
- amount of incorporation, comparable figure ([6]; HPCD): approximately 36.2 mg/g
